Measured values: patent US20250171435A1, “Carbon Linked BCL Inhibitors and Senolytic Compounds and Uses Thereof” (Rubedo Life Sciences, Inc., priority 2023, published 2025)
Like-named read-outs stand apart in the source and are kept apart here.

Experiments:
senescent A549 cells = test: Senescence assay: viability of senescent A549 cells (CellTiter-Glo or XTT); assay type: cell-based; conditions: chemotherapy-induced senescent A549 cells, compounds incubated 24-72 hours, viability relative to untreated control, read-out: A549_SEN IC50 (Absolute IC50 average)
Procedure: (§1) Cells were maintained in DMEM media (high glucose, 4 mM L-glutamine, no sodium pyruvate) supplemented with 10% fetal bovine serum in a humidified incubator at 37° C. with 5% carbon dioxide. Senescence was induced via treatment with a sublethal concentration of chemotherapy (bleomycin, gemcitabine, doxorubicin, 5-fluorouridine, mitomycin C), followed by a rest period without chemotherapy similarly to what is reported by others in the field (e.g., Aoshiba et al., 2003 Eur Respir J 22:436-443). Senescence was qualified by low EdU (5-ethynyl-2′-deoxyuridine) incorporation and high SA-β-Gal (senescence-associated beta-galactosidase) staining compared to proliferating untreated cells. Senescent cells were plated into 96-well plates at a density of 5-15,000 cells/well. The next day, compounds were added in duplicate across ten different concentrations spanning roughly four Log 10 units. Cells were incubated with the compounds for 24-72 hours, at which point viability was quantified using CellTiter-Glo (Promega) or XTT (R&D Systems). The viability for treated cells was determined relative to untreated control cells. The log of the compound concentration vs. normalized mean viability was fit to a four parameters Hill function with variable slope. The bottom was constrained to be greater than zero. The X mean value for Y=50 was interpolated to determine the absolute IC50. The results in Table 1 indicate that many of the compounds are active in cells and can induce a dose dependent decrease in the viability of senescent A549 and IMR90 cells.

senescent IMR90 cells = test: Senescence assay: viability of senescent IMR90 cells (CellTiter-Glo or XTT); assay type: cell-based; conditions: Homo sapiens, IMR-90; chemotherapy-induced senescent IMR90 cells; compounds incubated 24-72 hours; viability relative to untreated control; read-out: IMR90_SEN IC50 (Absolute IC50 average)
Procedure: as §1

| SMILES | IC50 (senescent A549 cells) | IC50 (senescent A549 cells; Homo sapiens) | IC50 (senescent IMR90 cells) |
| --- | --- | --- | --- |
| Cc1cc(C(=O)c2ccc(-c3cnn(CC45CC6(OCCN7CCOCC7)C[C@](C)(C4)C[C@](C)(C5)C6)c3C)c(C(=O)NS(=O)(=O)CCCCCC(=O)N[C@H](C(=O)N3C[C@@H](O)C[C@H]3C(=O)N[C@@H](C)c3ccc(-c4scnc4C)cc3)C(C)(C)C)n2)nnc1Nc1nc2ccccc2s1 [Compound 5, (2S,4S)-1-[(2S)-2-[6-({6-[6-(1,3-benzothiazol-2-ylamino)-5-methylpyridazine-3-carbonyl]-3-(1-{[(1S,3R,5S,7R)-3,5-dimethyl-7-[2-(morpholin-4-yl)ethoxy]adamantan-1-yl]methyl}-5-methylpyrazol-4-yl)pyridin-2-yl}formamidosulfonyl)hexanamido]-3,3-dimethylbutanoyl]-4-hydroxy-N-[(1S)-1-[4-(4-methyl-1,3-thiazol-5-yl)phenyl]ethyl]pyrrolidine-2-carboxamide] | 100 to 1000 nM |  |  |
| C#Cc1ccc(CNC(=O)[C@@H]2C[C@H](O)CN2C(=O)[C@@H](NC(=O)CCCCCS(=O)(=O)NC(=O)c2nc(C(=O)c3cc(C)c(Nc4nc5ccccc5s4)nn3)ccc2-c2cnn(CC34CC5(C)CC(C)(C3)CC(OCCN3CCOCC3)(C5)C4)c2C)C(C)(C)C)cc1 [Compound 6, (2S,4R)-1-[(2S)-2-[6-({6-[6-(1,3-benzothiazol-2-ylamino)-5-methylpyridazine-3-carbonyl]-3-(1-{[(1S,3R,5S,7R)-3,5-dimethyl-7-[2-(morpholin-4-yl)ethoxy]adamantan-1-yl]methyl}-5-methylpyrazol-4-yl)pyridin-2-yl}formamidosulfonyl)hexanamido]-3,3-dimethylbutanoyl]-N-[(4-ethynylphenyl)methyl]-4-hydroxypyrrolidine-2-carboxamide] |  | 10 to 100 nM |  |
| Cc1cc(C(=O)c2nc(C(=O)O)c(CCCOc3ccc(C#CCN(C)C)cc3F)s2)nnc1Nc1nc2ccccc2s1 [Compound 3, 2-(6-(benzo[d]thiazol-2-ylamino)-5-methylpyridazine-3-carbonyl)-5-(3-(4-(3-(dimethylamino)prop-1-yn-1-yl)-2-fluorophenoxy)propyl) thiazole-4-carboxylic acid] |  | 100 to 1000 nM | 1000 to 10000 nM |
| Cc1cc(C(=O)c2ccc(-c3cnn(CC45CC6(OCCN7CCOCC7)C[C@](C)(C4)C[C@](C)(C5)C6)c3C)c(C(=O)NS(=O)(=O)CCCCCC(=O)N[C@H](C(=O)N3C[C@H](O)C[C@H]3C(=O)N[C@@H](C)c3ccc(-c4scnc4C)cc3)C(C)(C)C)n2)nnc1Nc1nc2ccccc2s1 [Compound 4, (2S,4R)-1-[(2S)-2-[6-({6-[6-(1,3-benzothiazol-2-ylamino)-5-methylpyridazine-3-carbonyl]-3-(1-{[(1S,3R,5S,7R)-3,5-dimethyl-7-[2-(morpholin-4-yl)ethoxy]adamantan-1-yl]methyl}-5-methylpyrazol-4-yl)pyridin-2-yl}formamidosulfonyl)hexanamido]-3,3-dimethylbutanoyl]-4-hydroxy-N-[(1S)-1-[4-(4-methyl-1,3-thiazol-5-yl)phenyl]ethyl]pyrrolidine-2-carboxamide] | 100 to 1000 nM |  |  |
| Cc1cc(C(=O)c2ccc(-c3cnn(CC45CC6(C)CC(C)(C4)CC(OCCN4CCOCC4)(C6)C5)c3C)c(C(=O)NS(=O)(=O)c3ccc(N4CC(C(=O)N[C@H](C(=O)N5C[C@H](O)C[C@H]5C(=O)N[C@H](C)c5ccc(-c6scnc6C)cc5)C(C)(C)C)C4)cc3)n2)nnc1Nc1nc2ccccc2s1 [Compound 7, 6-[6-(1,3-benzothiazol-2-ylamino)-5-methylpyridazine-3-carbonyl]-3-(1-{[(1S,3R,5S,7R)-3,5-dimethyl-7-[2-(morpholin-4-yl)ethoxy]adamantan-1-yl]methyl}-5-methylpyrazol-4-yl)-N-[4-(3-{[(2S)-1-[(2S,4R)-4-hydroxy-2-{[(1S)-1-[4-(4-methyl-1,3-thiazol-5-yl)phenyl]ethyl]carbamoyl}pyrrolidin-1-yl]-3,3-dimethyl-1-oxobutan-2-yl]carbamoyl}azetidin-1-yl)benzenesulfonyl]pyridine-2-carboxamide] |  | 100 to 1000 nM |  |
| Cc1cc(C(=O)c2ccc(-c3cnn(CC45CC6(C)CC(C)(C4)CC(OCCO)(C6)C5)c3C)c(C(=O)O)n2)nnc1Nc1nc2ccccc2s1 [Compound 1, 6-(6-(benzo[d]thiazol-2-ylamino)-5-methylpyridazine-3-carbonyl)-3-(1-(((1r,3s,5R,7S)-3-(2-hydroxyethoxy)-5,7-dimethyladamantan-1-yl)methyl)-5-methyl-1H-pyrazol-4-yl)picolinic acid] |  | 1000 to 10000 nM | 100 to 1000 nM |
| Cc1cc(C(=O)c2ccc(-c3cnn(CC45CC6(C)CC(C)(C4)CC(OCCN4CCOCC4)(C6)C5)c3C)c(C(=O)O)n2)nnc1Nc1nc2ccccc2s1 [Compound 2, 6-(6-(benzo[d]thiazol-2-ylamino)-5-methylpyridazine-3-carbonyl)-3-(1-(((1r,3R,5S,7s)-3,5-dimethyl-7-(2-morpholinoethoxy)adamantan-1-yl)methyl)-5-methyl-1H-pyrazol-4-yl)picolinic acid] |  | 10 to 100 nM | 10 to 100 nM |
